Drawing on ChEMBL document CHEMBL1124889, “Alfred Burger award address. Bioactive alkaloids. 4. Results of recent investigations with colchicine and physostigmine” (J Med Chem, 1990), this text covers IC50 for 6 molecules.

pIC50: −log10 of the molar value. Where only a bound is given, the exact number is not on record here.

For test [1], the target named is T1, Cholinesterase (Homo sapiens, UniProt P06276). The test is described as follows: Inhibitory activity against Butyrylcholinesterase in cortex. In kind it is tissue-based.
T1 sequence (P06276 whole entry): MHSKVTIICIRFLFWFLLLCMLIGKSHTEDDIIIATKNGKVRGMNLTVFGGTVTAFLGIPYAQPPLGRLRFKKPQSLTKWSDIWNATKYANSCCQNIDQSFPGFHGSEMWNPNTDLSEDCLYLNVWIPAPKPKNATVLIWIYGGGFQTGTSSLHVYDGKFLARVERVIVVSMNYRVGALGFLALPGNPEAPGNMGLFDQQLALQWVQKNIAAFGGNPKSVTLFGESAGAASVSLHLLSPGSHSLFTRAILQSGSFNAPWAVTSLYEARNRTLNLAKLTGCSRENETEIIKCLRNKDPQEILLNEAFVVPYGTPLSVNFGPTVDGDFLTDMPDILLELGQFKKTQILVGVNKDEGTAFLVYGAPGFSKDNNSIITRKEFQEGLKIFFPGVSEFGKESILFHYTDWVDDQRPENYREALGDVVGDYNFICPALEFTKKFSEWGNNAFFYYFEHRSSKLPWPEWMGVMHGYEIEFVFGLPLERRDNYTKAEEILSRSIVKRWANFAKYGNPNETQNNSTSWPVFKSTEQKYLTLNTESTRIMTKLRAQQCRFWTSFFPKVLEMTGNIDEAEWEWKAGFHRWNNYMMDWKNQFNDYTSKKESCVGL
The target of test [2] is T1, Cholinesterase. The test is described as follows: Inhibitory activity against Butyrylcholinesterase in plasma. It counts as cell-free.
Test [3] addresses T2, Acetylcholinesterase (Homo sapiens, UniProt P22303). The test is described as follows: Inhibitory activity against Acetylcholinesterase in erythrocyte.
For test [4], the target named is T2, Acetylcholinesterase. The test is described as follows: Inhibitory activity against Acetylcholinesterase in cortex. In kind it is tissue-based.
Test [5] concerns the target Acetylcholinesterase (Electrophorus electricus, UniProt O42275). Nature of the test: Inhibitory activity against Acetylcholinesterase in electric eel.

Sequence of Acetylcholinesterase (Electrophorus electricus, UniProt O42275) (O42275 whole entry): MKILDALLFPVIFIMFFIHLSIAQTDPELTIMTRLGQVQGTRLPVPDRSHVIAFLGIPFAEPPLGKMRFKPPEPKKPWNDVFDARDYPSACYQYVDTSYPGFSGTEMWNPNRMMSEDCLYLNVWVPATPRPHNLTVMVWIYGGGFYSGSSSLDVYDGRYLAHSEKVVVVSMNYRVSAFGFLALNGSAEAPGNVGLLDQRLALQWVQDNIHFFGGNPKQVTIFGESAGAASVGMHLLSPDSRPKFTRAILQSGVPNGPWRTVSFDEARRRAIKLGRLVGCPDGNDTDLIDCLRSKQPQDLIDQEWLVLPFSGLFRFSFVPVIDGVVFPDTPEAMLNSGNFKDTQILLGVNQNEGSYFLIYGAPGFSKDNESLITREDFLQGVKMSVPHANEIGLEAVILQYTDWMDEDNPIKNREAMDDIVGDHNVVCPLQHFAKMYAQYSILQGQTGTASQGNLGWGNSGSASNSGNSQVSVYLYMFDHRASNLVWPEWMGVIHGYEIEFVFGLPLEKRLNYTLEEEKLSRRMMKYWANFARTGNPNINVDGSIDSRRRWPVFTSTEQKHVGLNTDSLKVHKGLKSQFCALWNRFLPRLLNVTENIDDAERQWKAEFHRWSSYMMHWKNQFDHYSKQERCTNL
T2 sequence (P22303 whole entry): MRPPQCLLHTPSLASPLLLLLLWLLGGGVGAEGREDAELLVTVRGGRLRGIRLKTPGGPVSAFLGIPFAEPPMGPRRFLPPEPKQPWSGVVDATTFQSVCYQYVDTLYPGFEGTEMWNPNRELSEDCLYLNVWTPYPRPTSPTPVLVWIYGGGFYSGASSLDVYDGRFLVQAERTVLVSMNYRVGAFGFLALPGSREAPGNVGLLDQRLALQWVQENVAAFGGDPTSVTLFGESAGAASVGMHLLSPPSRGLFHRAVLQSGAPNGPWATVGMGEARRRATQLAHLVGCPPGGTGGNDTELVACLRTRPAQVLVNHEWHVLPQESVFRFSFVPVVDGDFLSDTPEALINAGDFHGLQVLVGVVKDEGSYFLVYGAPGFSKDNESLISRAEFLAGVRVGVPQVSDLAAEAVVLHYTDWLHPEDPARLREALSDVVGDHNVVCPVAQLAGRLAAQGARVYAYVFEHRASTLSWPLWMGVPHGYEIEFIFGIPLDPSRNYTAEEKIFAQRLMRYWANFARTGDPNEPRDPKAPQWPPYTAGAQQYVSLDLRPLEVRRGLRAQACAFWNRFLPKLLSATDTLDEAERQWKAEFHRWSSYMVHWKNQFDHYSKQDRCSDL

Turning to `C=CCN1CC[C@@]2(C)c3cc(OC(=O)NC)ccc3N(C)[C@@H]12`, the pIC50 (usually −log10 of the IC50, conventionally taken in molar units) was 7.80 in test [1] and 8.52 in test [2].
Regarding `CNC(=O)Oc1ccc2c(c1)[C@]1(C)CCN(CCc3ccccc3)[C@@H]1N2C`, the pIC50 in test [3] was 6.66; in test [4], 6.82.
As to `COc1ccc(NC(=O)Oc2ccc3c(c2)[C@]2(C)CCN(C)[C@@H]2N3C)cc1`, the pIC50 in test [5] is 5.77; in test [1], 6.64; in test [2], 7.15.
As for `CN1CC[C@@]2(C)c3cc(OC(=O)NC(C)(C)C)ccc3N(C)[C@@H]12`, the pIC50 in test [3] is 4.64; in test [5], less than 5.00; in test [1], 4.96; in test [2], 5.70; in test [4], 4.49.
As for `CN(C)C(=O)Oc1ccc2c(c1)[C@]1(C)CCN(C)[C@@H]1N2C`, the pIC50 in test [3] is 6.68; in test [5], 6.01; in test [1] it was 5.52; in test [2], 6.38; in test [4], 6.51.
With `CCCCCCCCNC(=O)Oc1ccc2c(c1)[C@]1(C)CCN(C)[C@@H]1N2C`, the figures for the pIC50 in test [1] and in test [2] were 8.05 and 8.40, respectively.
